This is an account of results in patent US9999616B2 (ZENITH EPIGENETICS LTD., priority 2013, dated 2018).

In the experiment the test system is IL-6 and IL-17 and MCP-1 cytokines. Kind of experiment: In vivo efficacy in mouse endotoxemia model. To be noted: C57/Bl6 mice, 75 mg/kg oral, LPS 0.5 mg/kg i.p. On the procedure:
Sub lethal doses of Endotoxin (E. Coli bacterial lipopolysaccharide) are administered to animals to produce a generalized inflammatory response which is monitored by increases in secreted cytokines. Compounds are administered to C57/Bl6 mice at T=4 hours orally at 75 mg/kg dose to evaluate inhibition in IL-6 and IL-17 and MCP-1 cytokines post 3-h challenge with lipopolysaccharide (LPS) at T=0 hours at 0.5 mg/kg dose intraperitoneally.

As to `Cc1noc(C)c1-c1cc(-c2c(C)noc2C)c2nc[nH]c2c1` [Example Compound 1, 4,4′-(1H-benzo[d]imidazole-4,6-diyl)bis(3,5-dimethylisoxazole)], the In vivo activity result was “Active”.
